{
  "source": "PubChem BioAssay AID1259407",
  "about": "(Chemical Carcinogenesis Research Information System (CCRIS), 2018)",
  "tested_on": "CCRIS mutagenicity, Ames/micronucleus/aberration tests",
  "assay": "CCRIS mutagenicity studies",
  "key": {"[1]": {"conditions": "Test System: AMES SALMONELLA TYPHIMURIUM, Strain/Indicator: TA100, Metabolic Activation: NONE, Method: PREINCUBATION"}, "[2]": {"conditions": "Test System: AMES SALMONELLA TYPHIMURIUM, Strain/Indicator: TA98, Metabolic Activation: NONE, Method: PREINCUBATION"}},
  "note": "Activity calls are given as the source filed them. The rule behind the calls is not given here.",
  "data": [
    {"smiles": "CC(=O)Oc1ccc2c(c1)C1(C)OOC1(C)O2", "note": "(stereo not drawn)", "values": [
      {"measurement": "mutagenic call", "setting": "[1]", "value": "active; positive"}
    ]},
    {"smiles": "Nc1cc2ccc3cccc4ccc(c1)c2c34", "values": [
      {"measurement": "mutagenic call", "setting": "Test System: AMES SALMONELLA TYPHIMURIUM, Strain/Indicator: TA98, Metabolic Activation: RAT, LIVER, S-9, AROCLOR 1254 (2 OR 4%), Method: STANDARD PLATE", "value": "active; positive"},
      {"measurement": "mutagenic call", "setting": "Test System: AMES SALMONELLA TYPHIMURIUM, Strain/Indicator: TA100, Metabolic Activation: RAT, LIVER, S-9, AROCLOR 1254 (2%), Method: STANDARD PLATE", "value": "active; positive"},
      {"measurement": "mutagenic call", "setting": "Test System: AMES SALMONELLA TYPHIMURIUM, Strain/Indicator: TA1535, Metabolic Activation: RAT, LIVER, S-9, AROCLOR 1254 (2%), Method: STANDARD PLATE", "value": "inactive; negative"},
      {"measurement": "mutagenic call", "setting": "Test System: AMES SALMONELLA TYPHIMURIUM, Strain/Indicator: TA1537, Metabolic Activation: RAT, LIVER, S-9, AROCLOR 1254 (2%), Method: STANDARD PLATE", "value": "active; positive"}
    ]},
    {"smiles": "CCN(CC)CCNC(=O)c1cc(Cl)c(N)cc1OC", "values": [
      {"measurement": "mutagenic call", "setting": "Test System: CHINESE HAMSTER V-79, Strain/Indicator: V-79 (HGPRT)/6-THIOGUANINE, Metabolic Activation: NONE", "value": "active; positive"},
      {"measurement": "mutagenic call", "setting": "Test System: UDS HUMAN HEPATOCYTES, Strain/Indicator: THY INCORP, Metabolic Activation: NONE, Method: AUTORADIOGRAPHY", "value": "inactive; negative"},
      {"measurement": "mutagenic call", "setting": "Test System: UDS RAT HEPATOCYTES, Strain/Indicator: THY INCORP, Metabolic Activation: NONE, Method: AUTORADIOGRAPHY", "value": "inactive; negative"}
    ]},
    {"smiles": "C#Cc1ccc2c3c(cccc13)-c1ccccc1-2", "values": [
      {"measurement": "mutagenic call", "setting": "Test System: AMES SALMONELLA TYPHIMURIUM, Strain/Indicator: TA98, Metabolic Activation: NONE, Method: STANDARD PLATE", "value": "active; positive"},
      {"measurement": "mutagenic call", "setting": "Test System: AMES SALMONELLA TYPHIMURIUM, Strain/Indicator: TA98, Metabolic Activation: RAT, LIVER, S-9, AROCLOR 1254 (2%), Method: STANDARD PLATE", "value": "active; positive"}
    ]},
    {"smiles": "COc1ccc(CCC(=O)c2c(O)cc(O[C@@H]3O[C@H](CO)[C@@H](O)[C@H](O)[C@H]3O[C@@H]3O[C@@H](C)[C@H](O)[C@@H](O)[C@H]3O)cc2O)cc1O", "values": [
      {"measurement": "mutagenic call", "setting": "Test System: AMES SALMONELLA TYPHIMURIUM, Strain/Indicator: TA97, Metabolic Activation: HAMSTER, LIVER, S-9, AROCLOR 1254 (10 OR 30%), Method: PREINCUBATION", "value": "inactive; negative"},
      {"measurement": "mutagenic call", "setting": "Test System: AMES SALMONELLA TYPHIMURIUM, Strain/Indicator: TA97, Metabolic Activation: NONE, Method: PREINCUBATION", "value": "inactive; negative"},
      {"measurement": "mutagenic call", "setting": "Test System: AMES SALMONELLA TYPHIMURIUM, Strain/Indicator: TA97, Metabolic Activation: RAT, LIVER, S-9, AROCLOR 1254 (10 OR 30%), Method: PREINCUBATION", "value": "inactive; negative"},
      {"measurement": "mutagenic call", "setting": "Test System: AMES SALMONELLA TYPHIMURIUM, Strain/Indicator: TA98, Metabolic Activation: HAMSTER, LIVER, S-9, AROCLOR 1254 (10 OR 30%), Method: PREINCUBATION", "value": "inactive; negative"},
      {"measurement": "mutagenic call", "setting": "[2]", "value": "inactive; negative"},
      {"measurement": "mutagenic call", "setting": "Test System: AMES SALMONELLA TYPHIMURIUM, Strain/Indicator: TA98, Metabolic Activation: RAT, LIVER, S-9, AROCLOR 1254 (10 OR 30%), Method: PREINCUBATION", "value": "inactive; negative"},
      {"measurement": "mutagenic call", "setting": "Test System: AMES SALMONELLA TYPHIMURIUM, Strain/Indicator: TA100, Metabolic Activation: HAMSTER, LIVER, S-9, AROCLOR 1254 (10 OR 30%), Method: PREINCUBATION", "value": "inactive; negative"},
      {"measurement": "mutagenic call", "setting": "[1]", "value": "inactive; negative"},
      {"measurement": "mutagenic call", "setting": "Test System: AMES SALMONELLA TYPHIMURIUM, Strain/Indicator: TA100, Metabolic Activation: RAT, LIVER, S-9, AROCLOR 1254 (10 OR 30%), Method: PREINCUBATION", "value": "inactive; negative"},
      {"measurement": "mutagenic call", "setting": "Test System: AMES SALMONELLA TYPHIMURIUM, Strain/Indicator: TA1535, Metabolic Activation: HAMSTER, LIVER, S-9, AROCLOR 1254 (10 OR 30%), Method: PREINCUBATION", "value": "inactive; negative"},
      {"measurement": "mutagenic call", "setting": "Test System: AMES SALMONELLA TYPHIMURIUM, Strain/Indicator: TA1535, Metabolic Activation: NONE, Method: PREINCUBATION", "value": "inactive; negative"},
      {"measurement": "mutagenic call", "setting": "Test System: AMES SALMONELLA TYPHIMURIUM, Strain/Indicator: TA1535, Metabolic Activation: RAT, LIVER, S-9, AROCLOR 1254 (10 OR 30%), Method: PREINCUBATION", "value": "inactive; negative"}
    ]},
    {"smiles": "O=[N+]([O-])c1ccc2c(c1)Cc1cccc([N+](=O)[O-])c1-2", "values": [
      {"measurement": "mutagenic call", "setting": "Test System: AMES SALMONELLA TYPHIMURIUM, Strain/Indicator: TA98, Metabolic Activation: HAMSTER, LIVER, S-9, AROCLOR 1254 (30%), Method: PREINCUBATION", "value": "active; positive"},
      {"measurement": "mutagenic call", "setting": "[2]", "value": "active; positive"},
      {"measurement": "mutagenic call", "setting": "Test System: AMES SALMONELLA TYPHIMURIUM, Strain/Indicator: TA98, Metabolic Activation: RAT, LIVER, S-9, AROCLOR 1254 (30%), Method: PREINCUBATION", "value": "active; positive"},
      {"measurement": "mutagenic call", "setting": "Test System: AMES SALMONELLA TYPHIMURIUM, Strain/Indicator: TA100, Metabolic Activation: HAMSTER, LIVER, S-9, AROCLOR 1254 (30%), Method: PREINCUBATION", "value": "active; positive"},
      {"measurement": "mutagenic call", "setting": "[1]", "value": "active; positive"},
      {"measurement": "mutagenic call", "setting": "Test System: AMES SALMONELLA TYPHIMURIUM, Strain/Indicator: TA100, Metabolic Activation: RAT, LIVER, S-9, AROCLOR 1254 (30%), Method: PREINCUBATION", "value": "active; positive"}
    ]},
    {"smiles": "O=C(O[C@@H]1Cc2c(O)cc(O)cc2O[C@H]1c1cc(O)c(O)c(O)c1)c1cc(O)c(O)c(O)c1", "values": [
      {"measurement": "mutagenic call", "setting": "Test System: Ames Salmonella typhimurium, Strain/Indicator: TA102, Metabolic Activation: None, Method: Preincubation", "value": "inactive; negative"},
      {"measurement": "mutagenic call", "setting": "Test System: Ames Salmonella typhimurium, Strain/Indicator: TA102, Metabolic Activation: Rat, Liver, S-9, Aroclor 1254 in 0.154 M KCl, Method: Preincubation", "value": "inactive; negative"}
    ]},
    {"smiles": "CCCCN(CC)c1c([N+](=O)[O-])cc(C(F)(F)F)cc1[N+](=O)[O-]", "values": [
      {"measurement": "mutagenic call", "setting": "End Point: In vitro Chromosomal aberration, Test System: CHO cells, Metabolic Activation: None", "value": "inactive; negative"},
      {"measurement": "mutagenic call", "setting": "End Point: In vitro Chromosomal aberration, Test System: CHO cells, Metabolic Activation: Rodent, liver, S-9, Aroclor", "value": "inactive; negative"}
    ]},
    {"smiles": "CSCNc1ccccc1", "values": [
      {"measurement": "mutagenic call", "setting": "Test System: AMES SALMONELLA TYPHIMURIUM, Strain/Indicator: TA100, Metabolic Activation: NONE, Method: SPOT TEST", "value": "active; positive"},
      {"measurement": "mutagenic call", "setting": "Test System: AMES SALMONELLA TYPHIMURIUM, Strain/Indicator: TA100, Metabolic Activation: RAT, LIVER, S-9, AROCLOR 1254, Method: SPOT TEST", "value": "active; positive"},
      {"measurement": "mutagenic call", "setting": "Test System: AMES SALMONELLA TYPHIMURIUM, Strain/Indicator: TA102, Metabolic Activation: NONE, Method: SPOT TEST", "value": "active; positive"},
      {"measurement": "mutagenic call", "setting": "Test System: AMES SALMONELLA TYPHIMURIUM, Strain/Indicator: TA102, Metabolic Activation: RAT, LIVER, S-9, AROCLOR 1254, Method: SPOT TEST", "value": "active; positive"}
    ]},
    {"smiles": "ClCC(Cl)CBr", "note": "(stereo not drawn)", "values": [
      {"measurement": "mutagenic call", "setting": "Test System: AMES SALMONELLA TYPHIMURIUM, Strain/Indicator: TA100, Metabolic Activation: RAT, LIVER, MICROSOMES, PHENOBARBITAL, NADPH COFACTORS, Method: STANDARD PLATE", "value": "active; positive"},
      {"measurement": "mutagenic call", "setting": "Test System: AMES SALMONELLA TYPHIMURIUM, Strain/Indicator: TA100, Metabolic Activation: RAT, LIVER, MICROSOMES, PHENOBARBITAL, Method: STANDARD PLATE", "value": "inactive; negative"}
    ]}
  ]
}
